# Source: article PMC10222328 (Pharmaceuticals, 2023)
# What was measured:
# COX-2 = target: T1, COX-2 (Homo sapiens, UniProt P35354); assay: Fluorometric COX-2 inhibitor screening kit; assay type: biochemical; conditions: at 10 µM; mean ± standard error of two measurements; read-out: COX-2 Percent of Inhibition
# T1 construct: purchased Abcam, UK
# T1 sequence (P35354 18-604): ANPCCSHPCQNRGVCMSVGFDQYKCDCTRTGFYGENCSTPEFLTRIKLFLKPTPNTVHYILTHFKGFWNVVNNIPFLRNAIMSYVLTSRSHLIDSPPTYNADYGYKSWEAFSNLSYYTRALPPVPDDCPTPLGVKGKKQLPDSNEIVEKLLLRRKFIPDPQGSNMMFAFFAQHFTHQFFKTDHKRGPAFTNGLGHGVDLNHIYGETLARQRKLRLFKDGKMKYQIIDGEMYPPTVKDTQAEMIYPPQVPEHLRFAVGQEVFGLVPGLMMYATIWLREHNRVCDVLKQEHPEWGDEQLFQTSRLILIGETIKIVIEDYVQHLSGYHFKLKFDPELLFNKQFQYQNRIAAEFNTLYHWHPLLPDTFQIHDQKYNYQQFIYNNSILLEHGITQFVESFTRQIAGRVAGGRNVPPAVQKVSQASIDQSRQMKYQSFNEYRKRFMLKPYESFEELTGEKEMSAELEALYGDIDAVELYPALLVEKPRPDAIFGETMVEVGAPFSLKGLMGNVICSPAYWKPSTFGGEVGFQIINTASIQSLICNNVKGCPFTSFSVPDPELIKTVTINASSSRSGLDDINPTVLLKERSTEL
# Protocol: COX-2 and 5-LOX inhibitory activities were tested using fluorometric COX-2 and 5-LOX inhibitor screening kits (Abcam, UK). These assays are based on the fluorometric detection of Prostaglandin G2 (a product generated by the COX enzyme) or on the fluorometric detection of intermediate generated by the 5-LOX enzyme. The experiments were conducted according to the manufacturers’ instructions.
# For the determination of COX-2 inhibitory activity, tested compounds were dissolved in DMSO (5 mM stock solutions) and then diluted with the same solvent to obtain test solutions. Test solutions were further diluted 5X with COX assay buffer (2 µL of test solution and 8 µL COX assay buffer). […] Solvent control (SC) was prepared by adding 2 µL DMSO and 8 µL COX assay buffer, while sample (S) and enzyme control (EC) were prepared by adding 10 µL of diluted test solution and COX assay buffer, respectively, into assigned wells. For the determination of 5-LOX inhibitory activity, tested compounds were also dissolved in DMSO to prepare stock solutions with the same concentration (5mM), which were then diluted with the same solvent to obtain test solutions. Subsequently, test solutions were added to corresponding wells (2 µL).
# [1] = test system: carrageenan-induced rat paw edema; assay: Carrageenan-induced rat paw edema model; assay type: in vivo, Wistar albino rats; conditions: for Rat paw thickness: mean ± SD; for inhibition in vivo at 2.5 mg/kg / inhibition in vivo at 5 mg/kg / inhibition in vivo at 10 mg/kg: Rattus norvegicus, po
# Protocol: In vivo assessment of anti-inflammatory activity of compounds 1–7 was conducted in the carrageenan-induced rat paw edema model. Inflammation in all rats was induced by an intraplantar injection of […] of 0.5% carrageenan saline in the left hind paw. Two hundred male Wistar albino rats (180–210 g) were divided into seven experimental (n = 168 rats, 8 rats per subgroup) and two control groups (n = 32 rats, 8 rats per subgroup).
# Experimental groups involved rats that received compounds 1–7, and they were divided into three subgroups: rats received compounds 1–7 per os in three doses (2.5 mg/kg, 5 mg/kg, and 10 mg/kg) dissolved in 1% DMSO for 60 min before inducing inflammation.
# In order to quantify the anti-inflammatory effect, the thickness of the left paw tissue of each rat was measured at the following time intervals: immediately before inducing inflammation (moment 0) and 1, 2, 3, and 4 h (moments 1, 2, 3, and 4) after inflammation. Tissue thickness was measured in the middle of the rat paw using a digital vernier caliper (Aerospace, Beijing, China).
# [2] = Acute oral toxicity evaluation in rats; assay type: in vivo, Wistar albino rats; conditions: single oral dose 10 mg/kg, after 14 days, (absolute organ weight × 100%)/body weight
# Protocol: Healthy male rats (n = 24, three rats per group, body weight 180–200 g) were used for conducting an acute oral toxicity study. Animals were divided into the following groups: a control group that included rats that received a single dose of 1% DMSO and experimental groups that involved rats that received compounds 1–7 in the single dose of 10 mg/kg.
# After oral administration of the aforementioned agents, rats were kept in single cages and monitored during 14 days. Food and water intake, as well as body weight, were measured daily. All the behavioral changes and any signs of toxicity were monitored daily during 2-week protocol (fur and skin, eyes, salivation, respiration, urination (color), faeces consistency, somatomotor activity, and other alterations in behavior pattern). After accomplishing 14 days, animals were sacrificed and organ weight (liver, kidney, stomach, and heart) was recorded. Relative organ weight was calculated as follows:(absolute organ weight × 100%)/body weight of rat on the day of sacrifice.(1)
# [3] = 2.5 mg/kg per os, 1 h after carrageenan
# [4] = 2.5 mg/kg per os, 2 h after carrageenan
# [5] = 2.5 mg/kg per os, 3 h after carrageenan
# [6] = 2.5 mg/kg per os, 4 h after carrageenan
# [7] = 5.0 mg/kg per os, 1 h after carrageenan
# [8] = 5.0 mg/kg per os, 2 h after carrageenan
# [9] = 5.0 mg/kg per os, 3 h after carrageenan
# [10] = 5.0 mg/kg per os, 4 h after carrageenan
# [11] = 10.0 mg/kg per os, 1 h after carrageenan
# [12] = 10.0 mg/kg per os, 2 h after carrageenan
# [13] = 10.0 mg/kg per os, 3 h after carrageenan
# [14] = 10.0 mg/kg per os, 4 h after carrageenan
# [15] = 1 h, 2.5 mg/kg per os, 1 h after carrageenan
# [16] = 1 h, 5.0 mg/kg per os, 1 h after carrageenan
# [17] = 1 h, 10.0 mg/kg per os, 1 h after carrageenan
# [18] = 2 h, 2.5 mg/kg per os, 2 h after carrageenan
# [19] = 2 h, 5.0 mg/kg per os, 2 h after carrageenan
# [20] = 2 h, 10.0 mg/kg per os, 2 h after carrageenan
# [21] = 3 h, 2.5 mg/kg per os, 3 h after carrageenan
# [22] = 3 h, 5.0 mg/kg per os, 3 h after carrageenan
# [23] = 3 h, 10.0 mg/kg per os, 3 h after carrageenan
# [24] = 4 h, 2.5 mg/kg per os, 4 h after carrageenan
# [25] = 4 h, 5.0 mg/kg per os, 4 h after carrageenan
# [26] = 4 h, 10.0 mg/kg per os, 4 h after carrageenan
Structure (SMILES),inhibition at 10 µM (COX-2),"Rat paw thickness [1, 3]","Rat paw thickness [1, 4]","Rat paw thickness [1, 5]","Rat paw thickness [1, 6]","Rat paw thickness [1, 7]","Rat paw thickness [1, 8]","Rat paw thickness [1, 9]","Rat paw thickness [1, 10]","Rat paw thickness [1, 11]","Rat paw thickness [1, 12]","Rat paw thickness [1, 13]","Rat paw thickness [1, 14]","inhibition in vivo at 2.5 mg/kg [1, 15]","inhibition in vivo at 5 mg/kg [1, 16]","inhibition in vivo at 10 mg/kg [1, 17]","inhibition in vivo at 2.5 mg/kg [1, 18]","inhibition in vivo at 5 mg/kg [1, 19]","inhibition in vivo at 10 mg/kg [1, 20]","inhibition in vivo at 2.5 mg/kg [1, 21]",further results
"COc1ccc2cc([C@H](C)C(=O)NC(=S)Nc3ccc(F)cc3)ccc2c1 [Compound 1, (S)-N-((4-fluorophenyl)carbamothioyl)-2-(6-methoxynaphthalen-2-yl)propanamide]",24.7 ± 1.11%,6.50 ± 0.40 mm,6.50 ± 0.40 mm,6.20 ± 0.30 mm,5.53 ± 0.29 mm,7.00 ± 0.10 mm,6.50 ± 0.17 mm,5.8 ± 0.20 mm,5.27 ± 0.29 mm,7.03 ± 0.12 mm,6.60 ± 0.10 mm,6.10 ± 0.17 mm,5.27 ± 0.50 mm,20.3%,-7.22%,-5.84%,11.1%,3.45%,1.92%,10.5%,"inhibition in vivo at 5 mg/kg [1, 22]: 23.3%; inhibition in vivo at 10 mg/kg [1, 23]: 10.5%; inhibition in vivo at 2.5 mg/kg [1, 24]: 33.3%; inhibition in vivo at 5 mg/kg [1, 25]: 40.2%; inhibition in vivo at 10 mg/kg [1, 26]: 44.8%; Relative organ weight, heart [2]: 0.32 ± 0.02; Relative organ weight, kidney [2]: 0.31 ± 0.03; Relative organ weight, liver [2]: 2.73 ± 0.24; Relative organ weight, stomach [2]: 0.54 ± 0.05"
"COc1ccc(NC(=S)NC(=O)[C@@H](C)c2ccc3cc(OC)ccc3c2)cc1 [Compound 2, (S)-2-(6-methoxynaphthalen-2-yl)-N-((4-methoxyphenyl)carbamothioyl)propanamide]",18.8 ± 4.37%,6.57 ± 1.16 mm,6.07 ± 0.72 mm,5.77 ± 0.42 mm,5.30 ± 0.26 mm,7.03 ± 0.47 mm,6.40 ± 0.53 mm,5.70 ± 0.20 mm,5.53 ± 0.29 mm,6.5 ± 0.40 mm,6.17 ± 0.67 mm,5.53 ± 0.15 mm,5.33 ± 0.25 mm,9.28%,6.53%,23%,21.8%,24.9%,29.5%,23.3%,"inhibition in vivo at 5 mg/kg [1, 22]: 48.9%; inhibition in vivo at 10 mg/kg [1, 23]: 50.7%; inhibition in vivo at 2.5 mg/kg [1, 24]: 35.6%; inhibition in vivo at 5 mg/kg [1, 25]: 47.1%; inhibition in vivo at 10 mg/kg [1, 26]: 51.7%; Relative organ weight, heart [2]: 0.33 ± 0.04; Relative organ weight, kidney [2]: 0.34 ± 0.04; Relative organ weight, liver [2]: 3.07 ± 0.38; Relative organ weight, stomach [2]: 0.57 ± 0.04"
"CCOc1ccc(NC(=S)NC(=O)[C@@H](C)c2ccc3cc(OC)ccc3c2)cc1 [Compound 3, (S)-N-((4-ethoxyphenyl)carbamothioyl)-2-(6-methoxynaphthalen-2-yl)propanamide]",23.4 ± 0.57%,6.25 ± 0.21 mm,6.0 ± 0.57 mm,5.50 ± 0.42 mm,5.10 ± 0.14 mm,6.40 ± 0.79 mm,5.73 ± 0.38 mm,5.44 ± 0.28 mm,4.97 ± 0.42 mm,6.23 ± 0.25 mm,5.80 ± 0.26 mm,5.27 ± 0.15 mm,4.67 ± 0.38 mm,19.6%,6.53%,3.78%,21.8%,26.4%,12.6%,34.2%,"inhibition in vivo at 5 mg/kg [1, 22]: 28.6%; inhibition in vivo at 10 mg/kg [1, 23]: 25.1%; inhibition in vivo at 2.5 mg/kg [1, 24]: 44.7%; inhibition in vivo at 5 mg/kg [1, 25]: 42.5%; inhibition in vivo at 10 mg/kg [1, 26]: 47 to 54%; Relative organ weight, heart [2]: 0.31 ± 0.03; Relative organ weight, kidney [2]: 0.32 ± 0.06; Relative organ weight, liver [2]: 2.85 ± 0.17; Relative organ weight, stomach [2]: 0.50 ± 0.05"
"COc1cccc(NC(=S)NC(=O)[C@@H](C)c2ccc3cc(OC)ccc3c2)c1 [Compound 4, (S)-2-(6-methoxynaphthalen-2-yl)-N-((3-methoxyphenyl)carbamothioyl)propanamide]",37.71 ± 0.28%,5.93 ± 0.25 mm,5.40 ± 0.10 mm,5.17 ± 0.15 mm,4.90 ± 0.10 mm,6.10 ± 0.44 mm,5.97 ± 0.25 mm,5.70 ± 0.46 mm,5.22 ± 0.50 mm,6.00 ± 0.10 mm,5.70 ± 0.20 mm,5.30 ± 0.17 mm,4.90 ± 0.20 mm,21.6%,29.9%,27.1%,37.2%,28%,32.6%,37.9%,"inhibition in vivo at 5 mg/kg [1, 22]: 28.8%; inhibition in vivo at 10 mg/kg [1, 23]: 41.5%; inhibition in vivo at 2.5 mg/kg [1, 24]: 40.5%; inhibition in vivo at 5 mg/kg [1, 25]: 43.2%; inhibition in vivo at 10 mg/kg [1, 26]: 54%; Relative organ weight, heart [2]: 0.30 ± 0.03; Relative organ weight, kidney [2]: 0.33 ± 0.07; Relative organ weight, liver [2]: 2.45 ± 0.15; Relative organ weight, stomach [2]: 0.50 ± 0.05"
